According to patent US12077503B2, “Substituted cyclic amides and their use as herbicides” (FMC CORPORATION, priority 2015, dated 2024):

Columns and labels:
Assay type in all cases: in vivo
[1] = system: pigweed (Amaranthus retroflexus); assay: Test A preemergence
[2] = system: giant foxtail (Setaria faberii); assay: Test A preemergence
Summary of the method: (§1)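 Preemergence directed soil spray on seeded pots, or postemergence application to plants 2–10 cm, one- to two-leaf. Solvent mixture non-phytotoxic, with surfactant. Scored ~10 d later, visually, 0–100 vs untreated.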

[3] = system: Kochia (Kochia scoparia); assay: Test A preemergence
Summary of the method: as §1

[4] = system: barnyardgrass (Echinochloa crus-galli); assay: Test A preemergence
Summary of the method: as §1

[5] = system: ragweed (common ragweed, Ambrosia elatior); assay: Test A preemergence
Summary of the method: as §1

[6] = system: ryegrass, Italian (Italian ryegrass, Lolium multiflorum); assay: Test A preemergence
Summary of the method: as §1

[7] = system: corn (Zea mays); assay: Test A postemergence
Summary of the method: as §1

[8] = system: pigweed (Amaranthus retroflexus); assay: Test A postemergence
Summary of the method: as §1

[9] = system: giant foxtail (Setaria faberii); assay: Test A postemergence
Summary of the method: as §1

[10] = system: Kochia (Kochia scoparia); assay: Test A postemergence
Summary of the method: as §1

[11] = system: wheat (Triticum aestivum); assay: Test A postemergence
Summary of the method: as §1

[12] = system: Galium (catchweed bedstraw, Galium aparine); assay: Test A postemergence
Summary of the method: as §1

[13] = system: barnyardgrass (Echinochloa crus-galli); assay: Test A postemergence
Summary of the method: as §1

[14] = system: ragweed (common ragweed, Ambrosia elatior); assay: Test A postemergence
Summary of the method: as §1

[15] = system: blackgrass (Alopecurus myosuroides); assay: Test A postemergence
Summary of the method: as §1

[16] = system: ryegrass, Italian (Italian ryegrass, Lolium multiflorum); assay: Test A postemergence
Summary of the method: as §1

[17] = system: ducksalad (Heteranthera limosa); assay: Test B flooded paddy test; details: Flood; for Plant response rating, Ducksalad: 0 to 100 scale where 0 is no effect and 100 is complete control, 13 to 15 d
Summary of the method: (§2)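 Greenhouse paddy pots with 2-leaf stage plants received compound by direct addition to floodwater 3 cm deep, kept at that level. Scored visually at 13–15 d versus controls (0 no effect; 100 complete control).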

[18] = system: rice (Oryra sativa); assay: Test B flooded paddy test; details: Flood; for Plant response rating, Rice: 0 to 100 scale where 0 is no effect and 100 is complete control, 13 to 15 d
Summary of the method: as §2

[19] = system: sedge, umbrella (small-flower umbrella sedge, Cyperus difformis); assay: Test B flooded paddy test; details: Flood; for Plant response rating, Sedge, Umbrella: 0 to 100 scale where 0 is no effect and 100 is complete control, 13 to 15 d
Summary of the method: as §2

[20] = system: barnyardgrass (Echinochloa crus-galli); assay: Test B flooded paddy test; details: Flood; for Plant response rating, Barnyardgrass: 0 to 100 scale where 0 is no effect and 100 is complete control, 13 to 15 d
Summary of the method: as §2

[21] = 125 g ai/ha, preemergence, 0 to 100 scale (0 no effect, 100 complete control)
[22] = Preemergence, 500 g ai/ha, 0 is no effect, 100 is complete control
[23] = 500 g ai/ha, postemergence, 0 to 100 scale, 0 no effect, 100 complete control
[24] = Postemergence, 125 g ai/ha, visual injury, 0 to 100 scale (0 no effect, 100 complete control), approx. 10 d
[25] = 500 g ai/ha, preemergence, 0 to 100 scale (0 no effect, 100 complete control)
[26] = Preemergence, 125 g ai/ha, 0 to 100 scale (0 no effect, 100 complete control)
[27] = Postemergence, 125 g ai/ha, visual injury after approx. 10 d, 0 to 100 scale, 0 no effect, 100 complete control
[28] = Postemergence, 500 g ai/ha, visual injury, 0 to 100 scale (0 no effect, 100 complete control), approx. 10 d
[29] = 250 g ai/ha, visually evaluated after 13 to 15 d
[30] = 125 g ai/ha, Preemergence, visual injury after approximately 10 d, 0 to 100 scale where 0 is no effect and 100 is complete control
[31] = 500 g ai/ha, preemergence, 0 to 100 scale, 0 = no effect, 100 = complete control
[32] = 125 g ai/ha, postemergence, visual rating after approx. 10 d, 0 to 100 scale (0 no effect, 100 complete control)
[33] = Postemergence, 500 g ai/ha, 0 to 100 scale where 0 is no effect and 100 is complete control
[34] = 500 g ai/ha, postemergence, visual injury, 0 to 100 scale (0 no effect, 100 complete control), approx. 10 d

Structure (SMILES): CCCOc1cccc(C2CNC(=O)C2C(=O)Nc2cccc(F)c2F)c1 (racemic) [Compound 380]
- Plant response rating, Pigweed [1, 21]: 0
- Pigweed plant response rating (0 to 100 scale) [1, 22]: 30
- Plant response rating, Foxtail, Giant [2, 21]: 50
- Foxtail, Giant plant response rating (0 to 100 scale) [2, 22]: 90
- Plant response rating, Kochia [3, 21]: 0
- Kochia plant response rating (0 to 100 scale) [3, 22]: 40
- Plant response rating, Barnyardgrass [4, 21]: 70
- Barnyardgrass plant response rating (0 to 100 scale) [4, 22]: 90
- Plant response rating, Ragweed [5, 21]: 0
- Ragweed plant response rating (0 to 100 scale) [5, 22]: 0
- Plant response rating, Ryegrass, Italian [6, 21]: 0
- Ryegrass, Italian plant response rating (0 to 100 scale) [6, 22]: 20
- Plant response rating, Corn [7, 23]: 0
- Plant response rating, Corn [7, 24]: 0
- Plant response rating, Pigweed [8, 23]: 0
- Plant response rating, Pigweed [8, 24]: 0
- Plant response rating, Foxtail, Giant [9, 23]: 70
- Plant response rating, Foxtail, Giant [9, 24]: 30
- Plant response rating, Kochia [10, 23]: 0
- Plant response rating, Kochia [10, 24]: 0
- Plant response rating, Wheat [11, 23]: 20
- Plant response rating, Wheat [11, 24]: 0
- Plant response rating, Galium [12, 23]: 50
- Plant response rating, Galium [12, 24]: 20
- Plant response rating, Barnyardgrass [13, 23]: 80
- Plant response rating, Barnyardgrass [13, 24]: 50
- Plant response rating, Ragweed [14, 23]: 0
- Plant response rating, Ragweed [14, 24]: 0
- Plant response rating, Blackgrass [15, 23]: 40
- Plant response rating, Blackgrass [15, 24]: 30
- Plant response rating, Ryegrass, Italian [16, 23]: 0
- Plant response rating, Ryegrass, Italian [16, 24]: 0
- Plant response rating, Ducksalad ([17]; 250 g ai/ha): 0
- Plant response rating, Rice ([18]; 250 g ai/ha): 0
- Plant response rating, Sedge, Umbrella ([19]; 250 g ai/ha): 0
- Plant response rating, Barnyardgrass ([20]; 250 g ai/ha): 0

Structure (SMILES): O=C(Nc1cccc(F)c1F)C1C(=S)NCC1c1ccc(Cl)cc1 (stereo not drawn) [Compound 1387]
- Plant response rating, Pigweed [1, 25]: 60
- Plant response rating, Pigweed [1, 26]: 0
- Plant response rating, Foxtail, Giant [2, 25]: 90
- Plant response rating, Foxtail, Giant [2, 26]: 80
- Plant response rating, Kochia [3, 25]: 60
- Plant response rating, Kochia [3, 26]: 30
- Plant response rating, Barnyardgrass [4, 25]: 90
- Plant response rating, Barnyardgrass [4, 26]: 50
- Plant response rating, Ragweed [5, 25]: 0
- Plant response rating, Ragweed [5, 26]: 0
- Plant response rating, Ryegrass, Italian [6, 25]: 0
- Plant response rating, Ryegrass, Italian [6, 26]: 0
- Plant response rating, Corn [7, 27]: 0
- Plant response rating, Corn [7, 28]: 10
- Plant response rating, Pigweed [8, 27]: 0
- Plant response rating, Pigweed [8, 28]: 60
- Plant response rating, Foxtail, Giant [9, 27]: 60
- Plant response rating, Foxtail, Giant [9, 28]: 80
- Plant response rating, Kochia [10, 27]: 0
- Plant response rating, Kochia [10, 28]: 50
- Plant response rating, Wheat [11, 27]: 0
- Plant response rating, Wheat [11, 28]: 0
- Plant response rating, Galium [12, 27]: 30
- Plant response rating, Galium [12, 28]: 50
- Plant response rating, Barnyardgrass [13, 27]: 60
- Plant response rating, Barnyardgrass [13, 28]: 80
- Plant response rating, Ragweed [14, 27]: 0
- Plant response rating, Ragweed [14, 28]: 30
- Plant response rating, Blackgrass [15, 27]: 0
- Plant response rating, Blackgrass [15, 28]: 40
- Plant response rating, Ryegrass, Italian [16, 27]: 0
- Plant response rating, Ryegrass, Italian [16, 28]: 40
- Plant response rating, Ducksalad (0 to 100 scale where 0 is no effect and 100 is complete control) [17, 29]: 0
- Plant response rating, Rice (0 to 100 scale where 0 is no effect and 100 is complete control) [18, 29]: 0
- Plant response rating, Sedge, Umbrella (0 to 100 scale where 0 is no effect and 100 is complete control) [19, 29]: 0
- Plant response rating, Barnyardgrass (0 to 100 scale where 0 is no effect and 100 is complete control) [20, 29]: 0

Structure (SMILES): NS(=O)(=O)c1ccccc1NC(=O)C1C(=O)NCC1c1cccc(C(F)(F)F)c1 (stereo not drawn) [Compound 634]
- Plant response rating, Pigweed [1, 30]: 0
- Plant response rating, Pigweed [1, 31]: 30
- Plant response rating, Foxtail, Giant [2, 30]: 60
- Plant response rating, Foxtail, Giant [2, 31]: 80
- Plant response rating, Kochia [3, 30]: 0
- Plant response rating, Kochia [3, 31]: 0
- Plant response rating, Barnyardgrass [4, 30]: 20
- Plant response rating, Barnyardgrass [4, 31]: 70
- Plant response rating, Ragweed [5, 30]: 0
- Plant response rating, Ragweed [5, 31]: 0
- Plant response rating, Ryegrass, Italian [6, 30]: 0
- Plant response rating, Ryegrass, Italian [6, 31]: 0
- Plant response rating, Corn [7, 32]: 0
- Plant response rating, Corn [7, 33]: 0
- Plant response rating, Pigweed [8, 32]: 0
- Plant response rating, Pigweed [8, 34]: 0
- Plant response rating, Foxtail, Giant [9, 32]: 50
- Plant response rating, Foxtail, Giant [9, 34]: 80
- Plant response rating, Kochia [10, 32]: 0
- Plant response rating, Kochia [10, 34]: 0
- Plant response rating, Wheat [11, 32]: 0
- Plant response rating, Wheat [11, 34]: 0
- Plant response rating, Galium [12, 32]: 30
- Plant response rating, Galium [12, 34]: 60
- Plant response rating, Barnyardgrass [13, 32]: 40
- Plant response rating, Barnyardgrass [13, 33]: 80
- Plant response rating, Ragweed [14, 32]: 0
- Plant response rating, Ragweed [14, 34]: 0
- Plant response rating, Blackgrass [15, 32]: 0
- Plant response rating, Blackgrass [15, 33]: 0
- Plant response rating, Ryegrass, Italian [16, 32]: 0
- Plant response rating, Ryegrass, Italian [16, 34]: 20
- Plant response rating, Ducksalad ([17]; 500 g ai/ha): 40
- Plant response rating, Rice ([18]; 500 g ai/ha): 15
- Plant response rating, Sedge, Umbrella ([19]; 500 g ai/ha): 0
- Plant response rating, Barnyardgrass ([20]; 500 g ai/ha): 20
